# From US8742068B2, “Treatment and prevention of inflammatory diseases and autoimmune diseases” (Universiteit Utrecht Holding B.V., priority 2007, dated 2014)
# Entries after “also recorded” stand apart in the source; their conditions may differ.
# Tests used:
# [1] = system: adjuvant arthritis; details: in vivo; cited from earlier work
# [2] = system: proteoglycan induced arthritis; test: Proteoglycan induced arthritis (PGIA), intranasal pre-treatment; format: in vivo, Balb/c mice; details: control pOva
# Description: The proteoglycan induced arthritis model (PGIA) is a murine model of rheumatoid arthritis and is described to be a T-cell dependent and antibody mediated model. In the model arthritis is induced by two times injection of human proteoglycan (hPG) in a synthetic adjuvant dimethyldioctadecylammonium (DDA), see Hanyecz A. et al., Achievement of a synergistic adjuvant effect on arthritis induction by activation of innate immunity and forcing the immune response toward the Th1 phenotype. Arthritis Rheum. 2004 50(5):1665-76.
# Because arthritis is induced by immunization with a synthetic adjuvant, instead of complete Freund's adjuvant (CFA), the role of interfering immune responses, induced by microbial Hsp's present in CFA, can be excluded. Due to cross reactive responses, between the human and the mouse (self) PG, a chronic and relapsing arthritis develops. After disease development, arthritis severity is scored by clinical assessment of thickness, redness and deformation of the joints on a scale of 1-4 per paw.
# Ten female Balb/c mice, retired breeders obtained from Charles River, were randomly divided in two groups. To evaluate the effect of intra nasal treatment with Mycobacterial HSP70 (SEQ ID NO: 55) on PGIA 30 μg Hsp70 in 10 μl PBS was administered on day −7, −5 and −3 before disease induction. PGIA was induced by two times i.p. injection with 400 μg hPG and 2 mg DDA in 200 μl PBS. Subsequently developed arthritis scores were assessed by clinical evaluation as described in Example 7.
# Fifteen female Balb/c mice, retired breeders obtained from Charles River, were randomly divided in three groups (five mice per group). To evaluate the effect of intranasal treatment with Hsp70-derived peptides “B1” (SEQ ID NO: 1) and a mixture of C1 (SEQ ID NO: 3) and mC1a (SEQ ID NO: 4) (designated herein as “C1mix”) on PGIA 100 μg peptide in 10 μl PBS was administered on day −7, −5 and −3 before disease induction. Ovalbumin peptide 323-339 (pOva) was used as a control peptide. PGIA was induced by two times i.p. injection with 400 μg hPG and 2 mg DDA in 200 μl PBS. Subsequently developed arthritis scores were assessed by clinical evaluation.
# Twelve female Balb/c mice, retired breeders obtained from Charles River, were randomly divided in two groups (six mice per group). To evaluate the effect of intra nasal treatment with Hsp70 derived mC1 a on PGIA 100 μg peptide in 10 μl PBS was administered on day −14, −11, −7 and −4 before disease induction. Ovalbumin peptide (pOva) was used as a control peptide. PGIA was induced by two times i.p. injection with 400 μg hPG and 2 mg DDA in 200 μl PBS. Subsequently developed arthritis scores were assessed by clinical evaluation.
# Eighteen female Balb/c mice, retired breeders obtained from Charles River, were randomly divided in three groups (six mice per group). To evaluate the effect of intranasal (i.n.) treatment with Hsp70 derived peptides C1 and its mouse homologue mC1a on PGIA 100 μg peptide in 10 μl PBS was administered on day −7, −5 and −3 before disease induction (see FIG. 28). Ovalbumin peptide (pOva) was used as a control peptide. PGIA was induced by two times i.p. injection with 300 μg hPG and 2 mg DDA in 200 μl PBS. Subsequently developed arthritis scores were assessed by clinical evaluation. • Group A: (pOva): Treated with 100 μg pOva in 10 μl PBS intranasally • Group B (C1): Treated with 100 μg C1 in 10 μl PBS intranasally • Group C (mC1a): Treated with 100 μg mC1a in 10 μl PBS intranasally
# [3] = system: synovial fluid mononuclear cells (SFMC); test: Peptide-specific response of SFMC (intracellular staining and FACS); format: cell-based, human; details: eight days culture with peptide, 6 hour restimulation
# Protocol: Peptide-specific response of SFMC was measured by intracellular staining and FACS analysis. Therefore, cells were cultured in the presence of the peptide as described for PBMC. After 96 hours 100 μl of the medium was replaced by fresh culture medium and 40 IU/ml IL-2 was added. At day eight, cells were spun down, medium was aspirated and 200 μl new medium with fresh irradiated APC of the same donor was added (7.5*10^5 irradiated at 3500 rad) During 6 hours cells were cultured with or without the peptides and addition of the costimulatory mAbs CD28 and CD49 (0.5 μg/ml each) at 37° C. In the last 4 hours Golgistop (BD Biosciences) was added. Harvested cells were washed and surface stained as described previously […] with anti-CD3-Peridinin-chlorophyll-protein Complex (PerCP), anti-CD4-allophycocyanin (APC) and anti-CD69-fluorescein isothiocyanate (FITC) and subsequently fixed in Cytofix/cytoperm solution (BD Biosciences) followed by intracellular staining with phycoerythrin (PE) conjugated mAbs against either IL-10, IFNγ or TNFα. All antibodies were obtained from Becton Dickinson. Data are expressed as % positive cells of the CD3^+CD4^+ population.
# [4] = system: primed spleen and draining lymph node cells; test: Peptide pool immunization, in vitro re-stimulation with individual peptides (T-cell proliferation, cytokine production, cross reactivity); format: cell-based, Balb/c mice
# Description: To define the epitopes more precisely, we divided the 13 peptides, based on the degree of sequence identity between bacterial and the homologous mouse Hsp70s, in three pools (pool A: non-conserved peptides, pool B: conserved peptides comprising at least about 80% amino acid identity to the mouse homologue, and pool C: highly conserved peptides comprising >86% amino acid identity to the mouse homologue, see below) and immunized 10-12 weeks old Balb/c mice twice with a 2 week interval (intraperitoneally and subcutaneously) with the peptide pools. 10 days after the second immunization primed spleen and draining lymph node cells were re-stimulated in vitro with all the 13 individual peptides after which we measured T-cell proliferation (tritium incorporation), IFNγ, IL10, IL4 and IL5 production (cytokine production).
# Cross reactivity was determined with the corresponding mouse homologue peptides.
# [5] = system: PBMC isolated from the blood of healthy donors; test: Peptide-specific proliferation of human PBMC; format: cell-based; details: peptides at 20 μg/ml for 96 hours; compared to A5 control peptide
# Description: Peptide specific responses were studied in mononuclear cells obtained from the blood of healthy controls or the synovial fluid of a JIA and a RA patient. The patients were visiting the outpatient clinic of the departments of Rheumatology & Clinical Immunology and Pediatrics of the University Medical Center Utrecht (Utrecht, The Netherlands). The RA patient fulfilled diagnostic criteria of the American College of Rheumatology criteria for RA […]. Cells were isolated by ficoll (Pharmacia, Uppsala, Sweden) density gradient centrifugation of heparinized blood or synovial fluid and cultured in RPMI 1640 supplemented with 2 mmol/L glutamine, 100 U/ml penicillin and streptomycin (Gibco BRL, Gaithersburg, Md. USA) and 10% AB-positive heat-inactivated human serum (Sanquin Blood Bank, Utrecht, the Netherlands) in 96 wells round bottom plates (Nunc, Roskilde, Denmark) at 2*10^5 cells in 200 μl per well. Cultures were in triplicate stimulated with peptides at 20 μg/ml for 96 hours at 37° C. in 5% CO2 with 100% relative humidity. For determination of peptide-specific proliferation of PBMC, during the last 16 hours 1 μC1 (37 kBq) [^3H]-thymidine was added to each well and incorporation was measured. Data are expressed as stimulation index calculated as mean CPM of cells cultured with peptide divided by mean CPM of cells cultured without peptide.
# [6] = system: arthritis; details: cited from earlier work
# [7] = Example 11: 100 μg intranasally on day −7, −5 and −3
substance,measurement,setting,value
"peptide 234-252: peptide 234-252 of Mycobacterial HSP70 (Tanaka et al. 1999) (LREAAEKAKIELSSSQSTS; UniProt P9WMJ9 234-252, looked up, fragment)",IL-10 production,[1],induces IL-10 production
same,development of adjuvant arthritis,[1],suppresses the development of adjuvant arthritis
"amino acids 84-103: another peptide of Mycobacterial HSP70, amino acids 84-103 (Tanaka et al. 1999) (KKYTAPEISARILMKLKRDA; UniProt P9WMJ9 84-103, looked up, fragment)",development of adjuvant arthritis,[1],does not suppress adjuvant arthritis development
"VLRVINEPTAAALAY (listed as Mus musculus) [mC1a, mouse Grp75 (hspa9a) peptide 216-230, mouse homologue of C1]",disease activity (arthritis score),"[2]; Example 10: 100 μg intranasally on day −14, −11, −7 and −4",suppressed disease activity
same,disease activity (arthritis score),[2]; [7],significant reduction of disease activity
VLRIVNEPTAAALAY (listed as Mycobacterium tuberculosis) [C1],"production of IL-10, IFNγ and TNFα in the CD3+CD4+ population",[3],increased CD69 and cytokine expression
same,surface expression of CD69 in the CD3+CD4+ population,[3],increased CD69 and cytokine expression
same,Cross-reactivity of bacterially primed T-cells with mouse homologue peptide,[4],induced cross reactive T cell responses and yes
same,disease activity (arthritis score),[2]; [7],significant reduction of disease activity
"KPFQSVIADTGISVS (listed as Mycobacterium tuberculosis) [A1, pool A (not conserved)]",Cross-reactivity of bacterially primed T-cells with mouse homologue peptide,[4],no
"VLRIINEPTAAAIAY (listed as Mus musculus) [mC1b, mouse hsp70 (hspa1a/hspa8) peptide, mouse homologue of C1]","production of IL-10, IFNγ and TNFα in the CD3+CD4+ population",[3],"increased the production of IL-10, IFNγ and TNFα"
same,surface expression of CD69 in the CD3+CD4+ population,[3],increased
same,"peptide-specific proliferation (stimulation index, [3H] thymidine incorporation)",[5],increased proliferation of PBMC; also recorded: significantly increased the proliferation
"DEVVAVGAALQAGVL (listed as Mycobacterium tuberculosis) [B1, pool B (conserved)]",Cross-reactivity of bacterially primed T-cells with mouse homologue peptide,[4],induced cross reactive T cell responses and yes
same,disease severity (arthritis score),"[2]; Example 9: 100 μg intranasally on day −7, −5 and −3",reduction of disease severity
"peptide 111-125: synthetic 15-mer peptide of mycobacterial HSP70, amino acids 111-125 (Wendling et al. 2000) (ITDAVITTPAYFNDA; UniProt P9WMJ9 111-125, looked up, fragment)",arthritis,[6]; nasal administration,significant reduction of arthritis
same,arthritis development,[6]; parenteral pre-immunization,did not protect against arthritis development
